Source: patent US20020068360A1, “Cyclohexanediol cryoprotectant compounds” (priority 2000, published 2002)

Tested on: AV5 cells
Assay: Cell viability (Alamar Blue) of AV5 cells after cryopreservation and warming
Format: cell-based, porcine
Settings: 0 to 1 M CHD added to 1 M DMSO or to DMSO/formamide/propanediol (final 1 M), normalized to conventional cryoprotectant alone, FIGS. 2 and 3
Procedure: A primary cell strain called AV5 was used for these experiments. AV5 cells are derived from porcine heart valve leaflets. Hearts were obtained from pigs and the heart valve leaflets were then removed and washed several times with sterile phosphate-buffered saline (PBS). Small pieces (˜1 mm^2) were cut and placed into a 24-well microtiter plate coated with 0.2% gelatin. Dulbecco's Modified Eagle's Medium (DMEM) with 10% fetal calf serum (FCS) was added to just cover the bottom of the well and the plate was left at 37° C. with 5% CO2 in air until visible outgrowth occurred. […]
Cell viability was then determined using the non-invasive metabolic indicator Alamar Blue (Trek Diagnostics). […] Fluorescence from Alamar Blue was read in a fluorescent microplate reader (Fmax fluorescent microplate reader by […]) using an excitation wavelength of 544 nm and an emission wavelength of 590 nm.
The first set of experiments involved using two CPA compositions, either 1 M dimethyl sulfoxide (DMSO) (left bar of graph at each concentration of 1,3CHD in FIG. 2 and 1,4CHD in FIG. 3) or a combination of DMSO, formamide and propanediol at a final concentration of 1 M (right bar of graph at each concentration of 1,3CHD in FIG. 2 and 1,4CHD in FIG. 3). […] Cell viability was assessed using the assay described above. […]

OC1CCCC(O)C1 (centres unmarked) [1,3CHD, 1,3-cyclohexanediol]
relative cell viability after freezing: significantly increased

OC1CCC(O)CC1 (centres unmarked) [1,4CHD, 1,4-cyclohexanediol]
relative cell viability after freezing: significantly increased
